This is an account of results in patent publication US10286034B2, “Uses of bremelanotide in therapy for female sexual dysfunction” (Palatin Technologies, Inc., priority 2012, dated 2019).

The structures appear in SMILES notation.

Data set [1] in a line: Intranasal 10 mg Phase 2 studies in women with FSAD: plasma concentration 30 minutes post dose. Particulars: 10 mg intranasal. In kind it is in vivo, human. On the procedure: In the bremelanotide premenopausal arm, 42.5% of the subjects were discontinued due to hypertension, nausea, vomiting or myalgia. Subjects received a 10 mg intranasal dose of bremelanotide, with premenopausal subjects determined to have a mean plasma concentration of 88.5±51.9 ng/mL and a % CV of 58.6, and postmenopausal subjects determined to have a mean plasma concentration of 93.2±68.5 ng/mL and a % CV of 73.5. The minimum and maximum plasma concentration levels for all women at thirty minutes post dose range from 0.0 ng/mL to 207.0 ng/mL.
In the intranasal study, premenopausal women self-administered a 10 mg intranasal dose.

In data set [2] the test system is women diagnosed with sexual arousal disorder. Particulars: single intranasal dose of 20 mg, cited from earlier work.
Data set [3] in a line: Subcutaneous trials in males: vomiting and tolerability. In kind it is in vivo, human. The following applies: for subjects experiencing vomiting (mild or moderate): males.
Data set [4] deals with premenopausal females with FSAD and/or HSDD. Description: Example 1: placebo-controlled at-home trial of subcutaneous bremelanotide, efficacy (SSEs, FSFI, FSDS-DAO). In kind it is in vivo, human. On the procedure: A multi-centered, placebo-controlled, randomized, parallel group trial with fixed dose levels and designed to identify appropriate doses of bremelanotide administered by subcutaneous injection in premenopausal females with FSAD and/or HSDD, under the conditions of home use, was conducted. […] Subjects who continued to qualify for the trial then received 2 single in-clinic doses of randomized treatment (double-blind; approximately one week apart), followed by 12 weeks of double-blind treatment at home (subjects self-administered treatment as needed). Subjects were randomized (1:1:1:1) to one of four study treatment groups (placebo or doses with 0.75, 1.25, or 1.75 mg net weight bremelanotide). Randomization occurred immediately prior to the first in-clinic dose of double-blind treatment. Study drug and placebo was provided as pre-filled syringes in 0.3 mL volume, with subjects instructed on self-administration into the anterior thigh or abdomen. Enrolled subjects were premenopausal women who met the diagnostic criteria for […], or mixed […], utilizing a diagnostic screening guide including categorization of the sexual dysfunction as both acquired (vs. lifelong) and generalized (vs. situational). Subjects enrolled had previously been sexually “functional;” that is, experienced sexual arousal during sexual activity and/or a normal level of desire at some point in the past for a period of at least 2 years. […] Enrolled subjects were provided with an electronic diary system (eDiary) with instructions to complete an FSEP-R questionnaire with each sexual encounter. At selected in-clinic visits, subjects completed other assessment questionnaires, including […]-DAO, […] and WITS-9. In addition, various vital sign measures were conducted and blood and urine samples collected at selected in-clinic visits. […] The measurement period was defined as the number of events during the last four weeks of treatment minus the number of events during the baseline period, with outcomes reported for pooled results of women taking the two highest bremelanotide dose levels versus placebo. […] The FSFI is a 19-item questionnaire which provides for an additional measurement of changes over a longer recall period. • FSFI total score improvement (mean change of 3.55 vs. 1.88, p=0.0017) • Reduced associated distress related to sexual dysfunction, as measured by the Female Sexual Distress Scale-DAO (FSDS-DAO). The FSDS-DAO 15-item questionnaire is designed to assess and quantify the change in personal distress associated with […]-DAO total score improvement (mean change of -11.1 vs. -6.8, p=0.036).

[5] abbreviates: all women, thirty minutes post dose.
Setting [6] is: pooled 1.25 mg and 1.75 mg doses, baseline to end of study.

In the case of `CCCC[C@H](NC(C)=O)C(=O)N[C@H]1CC(=O)NCCCC[C@@H](C(=O)O)NC(=O)[C@H](Cc2c[nH]c3ccccc23)NC(=O)[C@H](CCCNC(=N)N)NC(=O)[C@@H](Cc2ccccc2)NC(=O)[C@H](Cc2c[nH]cn2)NC1=O` [bremelanotide, Ac-Nle-cyclo(-Asp-His-D-Phe-Arg-Trp-Lys)-OH], in data set [1] (setting [5]), the “maximum plasma concentration level” value was determined as 207.0 ng/mL and the “minimum plasma concentration level” value is 0.0 ng/mL. Moreover, the “% CV of plasma concentration” value in data set [1] (postmenopausal subjects) is recorded as 73.5%. Besides, in data set [1] (premenopausal women, 30 minutes post dosing), the “% CV of Cmax (plasma concentration)” value is given as 58.6%. Besides, the level at 0.5 h in data set [1] (female, human, plasma, inhaled or intranasal, postmenopausal subjects) was determined as 93.2 ± 68.5 ng/mL. Moreover, in data set [2] (compared to placebo), the “vaginal pulse amplitude measures” value was “without statistically relevant differences, compared to placebo”. In data set [2], the “reported feelings of sexual arousal” value is on record as “statistically relevant reported feelings of sexual arousal”. The “subjects experiencing vomiting (mild or moderate)” value (“subjects experiencing vomiting” for short) in data set [3] (7.5 mg dose level) is listed as 1 of 6. Besides, the “subjects experiencing vomiting” value in data set [3] (5-mg dose level) is on record as 1 of 6. Further, the “subjects experiencing vomiting” value in data set [3] (10-mg dose level) is reported as 3 of 6. Besides, the tolerability result in data set [3] (single subcutaneous doses of 4 and 6 mg, male subjects with ED and preexisting hypertension) was “improved tolerability”. In data set [4] (1.25 mg, 1.75 mg, and/or 1.25/1.75 mg pooled, exploratory analyses), the “efficacy on all key endpoints in HSDD-only and mixed HSDD/FSAD subgroups” value is reported as “statistically significant efficacy or a clinically significant trend versus placebo”. Also, in data set [4] (pooled 1.25 mg and 1.75 mg doses), the “Satisfying Sexual Events (SSEs), mean at baseline” value amounted to 1.6. Besides, in data set [4] (setting [6]), the “FSDS-DAO total score improvement, mean change” value is −11.1; the “FSFI total score improvement, mean change” value came to 3.55; the “increase in SSEs” value was 50%. In addition, in data set [4] (pooled 1.25 mg and 1.75 mg doses, last four weeks of treatment), the “Satisfying Sexual Events (SSEs), mean at end of study” value was 2.4. The “most optimal dose for efficacy” value in data set [4] (subcutaneous) came out at 1.75 mg. In data set [4] (versus placebo, exploratory analysis), the “women with end-of-study FSFI and FSDS-DAO total score levels above 26.5 and 18” value is reported as “higher percentage of women”.
